Data as given in patent publication US20090131462A1, “Fungicidally Active Agent” (BASF AKTIENGESELLSCHAFT, priority 2005, published 2009).

Test system: Pyrenophora teres
Assay: Activity against net blotch of barley caused by Pyrenophora teres, 2-day protective application
Type: in vivo
Conditions: individual active compound, barley seedlings cultivar Hanna, inoculated 48 hours after spraying, evaluated after 6 days
Experimental: The active compounds were used either as a commercial formulation or employed as a stock solution. The stock solution was prepared from 25 mg of active compound which had been made up to 10 ml using a mixture of acetone and/or DMSO as solvent and the emulsifier Uniperol® EL (wetting agent having emulsifying and dispersing action based on ethoxylated alkylphenols) in a volume ratio of solvent to emulsifier of 99:1. The volume was then made up to 100 ml using water.
Evaluation was carried out by visually determining the infected leaf areas in %. These percentages were converted into efficacies in % of the untreated control. At an efficacy of 0, the infection of the treated plants corresponds to that of the untreated control plants; at an efficacy of 100, the treated plants are not infected.
The expected efficacies for active compound combinations were determined using Colby's formula (Colby, S. R., “Calculating synergistic and antagonistic responses of herbicide combinations”, Weeds, 15, pp. 20-22, 1967) and compared to the observed efficacies.
Colby's formula: E=x+y−xy/100
E expected efficacy, expressed in % of the untreated control, when using the mixture of the active compounds A and B at the concentrations a and b x efficacy, expressed in % of the untreated control, when using the active compound A at the concentration a y efficacy, expressed in % of the untreated control, when using the active compound B at the concentration b Activity against net blotch of barley caused by Pyrenophora teres, 2-day protective application Leaves of potted barley seedlings of the cultivar “Hanna” were sprayed to runoff point with an aqueous suspension having the concentration of active compound stated below. 48 hours after the spray coating had dried on, the test plants were inoculated with an aqueous spore suspension of Pyrenophora teres (synonym Drechslera teres), the net blotch pathogen. […] After 6 days, the extent of the development of the disease was determined visually in % infection of the total leaf area.

Row | Compound | Efficacy (4 ppm in the spray liquor, % of the untreated control) | Efficacy (concentration in the spray liquor printed as 0 ppm) | Efficacy (250 ppm in the spray liquor)
1 | CC(C)CC(C)c1sccc1NC(=O)c1cn(C)nc1C(F)(F)F (stereo not drawn) [compound A, N-[2-(1,3-dimethylbutyl)-3-thienyl]-1-methyl-3-(trifluoromethyl)-1H-pyrazole-4-carboxamide] | 22% | 0.5% | –
2 | metiram | – | – | 0%
